{"source": "patent US10571469B2", "about": "“Kit for labelling bacteria” (Centre National de la Recherche Scientifique (CNRS), priority 2012, dated 2020)", "key": {"Shewanella oneidensis": {"tested_on": "Shewanella oneidensis", "test": "Metabolic labelling with KDO-N3, click chemistry, fluorescence microscopy (negative control strain)", "type": "cell-based", "conditions": "KDO-N3 4 mM, 12 hours, 28° C.; A488-yne-Cu(I) click 60 min"}, "[1]": {"tested_on": "Legionella pneumophila strain Paris", "type": "cell-based", "conditions": "KDO-N3 4 mM, 12 hours; A488-yne-Cu(I) click 60 min"}, "Bacillus subtilis": {"tested_on": "Bacillus subtilis", "test": "Metabolic labelling with KDO-N3, click chemistry, fluorescence microscopy (negative control strain)", "type": "cell-based", "conditions": "Gram positive; KDO-N3 4 mM, 12 hours; A488-yne-Cu(I) click 60 min"}, "Staphylococcus aureus": {"tested_on": "Staphylococcus aureus", "test": "Metabolic labelling with KDO-N3, click chemistry, fluorescence microscopy (negative control strain)", "type": "cell-based", "conditions": "Gram positive; KDO-N3 4 mM, 12 hours; A488-yne-Cu(I) click 60 min"}, "E. coli 086": {"tested_on": "E. coli 086", "test": "Metabolic labelling with KDO-N3, click chemistry, fluorescence microscopy", "type": "cell-based, Escherichia coli", "conditions": "KDO-N3 4 mM, 12 hours; A488-yne-Cu(I) click 60 min"}, "E. coli K12": {"tested_on": "E. coli K12", "test": "Metabolic LPS labelling with KDO-N3, Cu(I) click with A488-yne, fluorescence microscopy", "type": "cell-based, Escherichia coli"}, "S. typhimurium 12023": {"tested_on": "S. typhimurium 12023", "test": "Metabolic labelling with KDO-N3, click chemistry, fluorescence microscopy", "type": "cell-based, Salmonella typhimurium", "conditions": "KDO-N3 4 mM, 12 hours; A488-yne-Cu(I) click 60 min"}, "[2]": {"conditions": "mixture with B. subtilis, LB, 12 hours, 696 analyzed cells"}, "[3]": {"conditions": "mixture with E. coli, LB, 12 hours, 696 analyzed cells"}}}
{"smiles": "[N-]=[N+]=NC[C@@H](O)[C@@H](O)[C@H](O)[C@H](O)CC(=O)C(=O)O", "note": "[KDO-N3, 8-azido-3,8-dideoxy-D-manno-octulosonic acid]", "values": [{"measurement": "E. coli KDO negative", "setting": "E. coli K12 sodA-mCherry; 9 cells, standard method error range about 10%", "value": "about 2%"}, {"measurement": "assimilation in E. coli cells of the mixture", "setting": "E. coli K12 sodA-mCherry; mixture with B. subtilis", "value": "assimilated in substantially only cultivable E. coli cells"}, {"measurement": "KDO-N3+ cells, mCherry + (E. coli)", "setting": "E. coli K12 sodA-mCherry; [2]", "value": 517}, {"measurement": "KDO-N3− cells, mCherry + (E. coli)", "setting": "E. coli K12 sodA-mCherry; [2]", "value": 9}, {"measurement": "cell-surface labeling", "setting": "Shewanella oneidensis", "value": "no labeling"}, {"measurement": "cell-surface labeling", "setting": "[1]", "value": "efficient and well defined cell-surface labeling"}, {"measurement": "B. subtilis false positive", "setting": "B. subtilis; 4 KDO-N3+ B. subtilis cells", "value": "about 2%"}, {"measurement": "assimilation in B. subtilis cells of the mixture", "setting": "B. subtilis; mixture with E. coli", "value": "not in cultivable B. subtilis cells"}, {"measurement": "KDO-N3+ cells, mCherry − (B. subtilis)", "setting": "B. subtilis; [3]", "value": 4}, {"measurement": "KDO-N3− cells, mCherry − (B. subtilis)", "setting": "B. subtilis; [3]", "value": 166}, {"measurement": "cell-surface labeling", "setting": "Bacillus subtilis", "value": "no labeling"}, {"measurement": "cell-surface labeling", "setting": "Staphylococcus aureus", "value": "no labeling"}, {"measurement": "cell-surface labeling", "setting": "E. coli 086", "value": "efficient and well defined cell-surface labeling"}, {"measurement": "cell-surface labeling", "setting": "E. coli K12; KDO-N3 4 mM, 12 hours, A488-yne-Cu(I) click 60 min", "value": "efficient and well defined cell-surface labeling"}, {"measurement": "labeling of bacteria (fluorescence)", "setting": "E. coli K12; […], click with TGTA and A488-yne, after 5 min, control without KDO-N3 no signal", "value": "very bright labeling"}, {"measurement": "location of fluorescence", "setting": "E. coli K12; after click labelling with A488-yne, 5 min", "value": "mostly evident around the cell periphery"}, {"measurement": "cell-surface labeling", "setting": "S. typhimurium 12023", "value": "efficient and well defined cell-surface labeling"}]}
